These results are taken from US20140256555A1, “METHODS FOR TREATING FLOWERING PLANTS WITH RIBOSE” (RiboCor, Inc., priority 2013, published 2014).

Assay [1] concerns flowering plants. Briefly: Watering of house plants with D-ribose solution, observation of blooming. In kind it is in vivo. The settings on record: 5 grams of D-ribose to one gallon of water, after MIRACLE-GRO was stopped. An excerpt:
(§1) Plants treated with a solution of D-ribose in this example included Orchids, Christmas Cactus, Palm, Mother's-in-law Tongue/Snake Plant, Rosemary, Bamboo, Pothos, Hibiscus, Jade, Purple Passion, Aloe vera, Schefflera, Cacti, and Norfolk Island Pine.
(§2) The use of MIRACLE-GRO liquid plant food was stopped, then the use of a solution of D-ribose to treat the plants was started. Each week a fresh solution of D-ribose was made using 5 grams of D-ribose to one gallon of water.
Specific observations are noted below. While all the plants were extremely healthy and grew exceptionally well, traditional flowering varieties performed amazingly well.

For assay [2], the system named is Orchids. Kind of assay: Watering with D-ribose solution, blooming of orchids. The settings on record: 5 grams of D-ribose to one gallon of water. It counts as in vivo.
Description: as §1, §2
The first subject was an orchid which had not bloomed in six plus years.

Assay [3] has as its system Christmas Cactus. Kind of assay: Watering with D-ribose solution, blooming of Christmas Cactus. In kind it is in vivo. The settings on record: typically blooms only around Christmas and Easter; 5 grams of D-ribose to one gallon of water.
Description: as §1, §2
This variety of plant typically only blooms around the Christmas and Easter holidays each year for a few weeks up to a month or so, then it stops blooming.

Assay [4] relates to Hibiscus. Briefly: Watering with D-ribose solution, blooming of Hibiscus. In kind it is in vivo. Particulars: indoors for the winter months; 5 grams of D-ribose to one gallon of water.
Description: as §1, §2
This plant was taken inside in October for the winter months.

Assay [5] concerns Palm. Briefly: Watering with D-ribose solution, blooming of Palm. In kind it is in vivo. Particulars: plant had not bloomed in approximately fifteen years; 5 grams of D-ribose to one gallon of water.
Description: as §1, §2
This is typically regarded as a non-flowering type of plant. This plant had not bloomed in approximately fifteen years.

Assay [6] concerns Snake Plant. Kind of assay: Watering with D-ribose solution, blooming of Snake Plant. It counts as in vivo, Mother's-in-law Tongue/Snake Plant. Particulars: had not bloomed in over 15 years, indoor plant; 5 grams of D-ribose to one gallon of water.
Description: as §1, §2
This is another example of plant typically regarded as a non-flowering type plant. […] It had not bloomed in over 15 years. While flowers on this plant are not unheard of, it is uncommon to bloom in the Minnesota climate and as an indoor plant.

For assay [7], the system named is Purple Waffle. Kind of assay: Growth of Purple Waffle plants over a 9 month period with weekly feeding. It counts as in vivo. The settings on record: 1× (1.5 mg/ml) or 2× (3 mg/ml) D-ribose weekly, versus control and MIRACLE-GRO fed plant. Here is the method: The growth of four plants was observed over a 9 month period. One plant was not fed (control), but watered weekly. One plant was fed MIRACLE-GRO liquid plant food weekly based on product instructions of feeding every time you water by squeezing 10-20 drops into 1 quart of water. One plant was fed 1× (1.5 mg/ml) D-ribose weekly. One plant was fed 2× (3 mg/ml) D-ribose weekly.

Turning to `O=C[C@H](O)[C@H](O)[C@H](O)CO` [D-ribose], the “blooming observed in treated plants” value in assay [1] is on record as “Sustained blooming in many of the flowering plants”. Further, in assay [2] (orchid which had not bloomed in six plus years), the “blooming, first orchid” value was “sparked two new stems full of blooms”. For the same compound, in assay [2] (orchid which had not bloomed in three plus years), the “blooming, second orchid” value was “showed the same results as subject one”. The blooming result in assay [3] was “started to bloom early and sustained an abundance of continued blooms”; in assay [4] it was “continuously bloomed”. Besides, the figures for the “blooming / flowering growth” value in assay [5] and in assay [6] were “grew an unusual type of growth that appeared to be a flowering/seed mechanism on two different stems” and “grew unusual growths that appeared to be some type of flowering appendage”, respectively. Further, the branching result in assay [7] is “increased branching compared to both the control and the MIRACLE-GRO fed plant”.
